Data on 7 compounds can be found in patent publication US11225486B2, “Tertiary alcohols as PI3K-γ inhibitors” (Incyte Corporation, priority 2017, dated 2022).

Experiment [1] concerns the target PI3Kγ (p110γ) Recombinant Human Protein (Homo sapiens (Human), UniProt P48736). The experiment is described as follows: PI3K-γ scintillation proximity assay. It counts as biochemical. The text has this:
Example B. PI3K-γ Scintillation Proximity Assay
[γ-^33P]ATP (10 mCi/mL) and Wheat Germ Agglutinin (WGA) YSi SPA Scintillation Beads was purchased from Perkin-Elmer (Waltham, Mass.). Lipid kinase substrate, D-myo-Phosphatidylinositol 4,5-bisphosphate (PtdIns(4,5)P2)D (+)-sn-1,2-di-O-octanoylglyceryl, 3-O-phospho linked (PIP2), CAS 204858-53-7, was purchased from Echelon Biosciences (Salt Lake City, Utah). PI3Kγ (p110γ) Recombinant Human Protein was purchased from Life technology (Grand Island, N.Y.). ATP, MgCl2, DTT, EDTA, MOPS and CHAPS were purchased from Sigma-Aldrich (St. Louis, Mo.).
(§1) The kinase reaction was conducted in polystyrene 384-well Greiner Bio-one white plate from Thermo Fisher Scientific in a final volume of 25 μL. Inhibitors were first diluted serially in DMSO and added to the plate wells before the addition of other reaction components. The final concentration of DMSO in the assay was 2%. The PI3Kγ assay was carried out at room temperature in 20 mM MOPS, pH 6.7, 10 mM MgCl2, 5 mM DTT and CHAPS 0.03%. Reactions were initiated by the addition of ATP, the final reaction mixture consisted of 20 μM PIP2, 2 μM ATP, 0.5 μCi [γ-^33P] ATP, 13 nM PI3Kγ. Reactions were incubated for 120 min and terminated by the addition of 40 μL SPA beads suspended in quench buffer: 163 mM potassium phosphate pH 7.8, 20% glycerol, 25 mM EDTA. The final concentration of SPA beads is 1.0 mg/mL. After the plate sealing, plates were shaken overnight at room temperature and centrifuged at 1500 rpm for 10 min, the radioactivity of the product was determined by scintillation counting on Topcount (Perkin-Elmer). IC50 determination was performed by fitting the curve of percent of the solvent control activity versus the log of the inhibitor concentration using the GraphPad Prism 6.0 software.

Experiment [2] addresses PI3Kδ (p110δ/p85α) Recombinant Human Protein (Homo sapiens (Human), UniProt O00329). Put plainly: PI3Kδ scintillation proximity assay. It counts as biochemical. Particulars: read-out: P13Kδ IC50. As for the experimental part: PI3Kδ Scintillation Proximity Assay
[γ-^33P]ATP (10 mCi/mL) and Wheat Germ Agglutinin (WGA) YSi SPA Scintillation Beads was purchased from Perkin-Elmer (Waltham, Mass.). […] PI3Kδ (p110δ/p85α) Recombinant Human Protein was purchased from Eurofins (St Charles, Mo.). ATP, MgCl2, DTT, EDTA, MOPS and CHAPS were purchased from SigmaAldrich (St. Louis, Mo.).
as §1, with “PI3Kδ” for “PI3Kγ”, “ATP, 13 nM PI3Kγ. Reactions were incubated for 120 min and terminated by the addition of 40 μL SPA beads suspended in quench buffer: 163 mM potassium phosphate pH 7.8, 20% glycerol, 25 mM EDTA.” left out, “(PerkinElmer).” for “(Perkin-Elmer).”
In general terms: Scintillation proximity formats need no separation of bound from free tracer.

Experiment [3] relates to Phosphorylated Ribosomal Protein S6 (RPS6) in THP-1 cells. Put plainly: THP-1 RPS6 ELISA assay. It counts as cell-based. Particulars: Homo sapiens, THP-1, THP-1 cells, 10 nM MCP-1 stimulation, phospho-RPS6 ELISA; read-out: PI3Kγ_THP1_RPS6_ELISA IC50. As for the experimental part:
Example A. THP-1 RPS6 ELISA Assay
To measure the Phosphorylated Ribosomal Protein S6 (RPS6) in cell lysates, THP-1 cells (Human Acute Monocytic Leukemia) are purchased from ATCC (Manassas, Va.) and maintained in RPMI with 10% FBS (Gibco/Life Technologies, Carlsbad, Calif.). For the assay, THP-1 cells are serum starved overnight in RPMI, then plated in RPMI (2×10^5 cells/well in 90 μL) into 96-well flat-bottom tissue culture treated plates (Corning, Corning, N.Y.), in the presence or absence of a concentration range of test compounds. Covered plates are incubated for 2 hours at 37° C., 5% CO2 then treated with or without 10 nM MCP-1(MYBioSource, San Diego, Calif.) for 15 minutes at 37° C., 5% CO2. Plates are centrifuged at 1600 RPM and supernatants are removed. Cells are lysed in Lysis Buffer (Cell Signaling, Danvers, Mass.) with Protease Inhibitor (Calbiochem/EMD, Germany), PMSF (Sigma, St Louis Mo.), HALTS (Thermo Fisher, Rockford, Ill.) for 30 min on wet ice. Cell lysates are frozen at −80° C. before testing. The lysates are tested in the Human/Mouse/Rat Phospho-RPS6 ELISA (R&D Systems, Inc. Minn, Minn.). The plate is measured using a microplate reader (SpectraMax M5—Molecular Devices, LLC Sunnyvale, Calif.) set to 450 nm with a wavelength correction of 540. […]
A general note: In an ELISA, binding on a coated surface is turned into a signal by an enzyme label.

Where [4] appears, read: 20 μM PIP2, 2 μM ATP, 13 nM PI3Kγ.
[5] abbreviates: 20 μM PIP2, 2 μM ATP, 3.4 nM PI3Kδ.

Structures can show the parent of a compound that is named as a salt. Where two headings read alike, the source gives them in different places.

Sequence of PI3Kδ (p110δ/p85α) Recombinant Human Protein (O00329 whole entry): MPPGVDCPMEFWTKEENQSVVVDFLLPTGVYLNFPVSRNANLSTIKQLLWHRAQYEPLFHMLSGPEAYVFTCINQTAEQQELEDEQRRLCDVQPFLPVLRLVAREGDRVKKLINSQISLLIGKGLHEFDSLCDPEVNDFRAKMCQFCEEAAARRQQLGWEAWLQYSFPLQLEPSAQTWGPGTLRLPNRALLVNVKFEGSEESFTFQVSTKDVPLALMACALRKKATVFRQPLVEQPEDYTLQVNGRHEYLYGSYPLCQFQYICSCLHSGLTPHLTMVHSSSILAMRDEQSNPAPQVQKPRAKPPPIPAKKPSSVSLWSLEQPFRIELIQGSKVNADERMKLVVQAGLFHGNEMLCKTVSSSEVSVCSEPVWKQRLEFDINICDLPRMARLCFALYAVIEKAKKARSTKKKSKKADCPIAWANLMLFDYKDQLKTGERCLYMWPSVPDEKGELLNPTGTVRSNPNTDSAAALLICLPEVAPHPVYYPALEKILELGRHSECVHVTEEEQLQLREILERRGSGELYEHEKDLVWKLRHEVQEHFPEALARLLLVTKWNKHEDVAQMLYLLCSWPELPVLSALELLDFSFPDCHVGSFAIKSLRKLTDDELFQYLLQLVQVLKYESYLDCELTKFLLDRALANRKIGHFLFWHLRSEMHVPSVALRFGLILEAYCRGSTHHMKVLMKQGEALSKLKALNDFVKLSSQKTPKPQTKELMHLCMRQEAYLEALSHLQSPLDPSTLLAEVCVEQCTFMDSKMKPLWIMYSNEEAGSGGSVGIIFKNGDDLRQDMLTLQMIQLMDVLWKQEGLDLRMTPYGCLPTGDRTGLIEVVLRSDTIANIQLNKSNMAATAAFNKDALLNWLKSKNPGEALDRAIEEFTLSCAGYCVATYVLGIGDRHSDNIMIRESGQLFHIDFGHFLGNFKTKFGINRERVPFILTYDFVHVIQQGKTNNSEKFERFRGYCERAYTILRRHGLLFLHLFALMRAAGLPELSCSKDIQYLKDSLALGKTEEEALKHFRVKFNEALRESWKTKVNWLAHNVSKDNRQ
Sequence of PI3Kδ (p110δ/p85α) Recombinant Human Protein (P27986 whole entry partner): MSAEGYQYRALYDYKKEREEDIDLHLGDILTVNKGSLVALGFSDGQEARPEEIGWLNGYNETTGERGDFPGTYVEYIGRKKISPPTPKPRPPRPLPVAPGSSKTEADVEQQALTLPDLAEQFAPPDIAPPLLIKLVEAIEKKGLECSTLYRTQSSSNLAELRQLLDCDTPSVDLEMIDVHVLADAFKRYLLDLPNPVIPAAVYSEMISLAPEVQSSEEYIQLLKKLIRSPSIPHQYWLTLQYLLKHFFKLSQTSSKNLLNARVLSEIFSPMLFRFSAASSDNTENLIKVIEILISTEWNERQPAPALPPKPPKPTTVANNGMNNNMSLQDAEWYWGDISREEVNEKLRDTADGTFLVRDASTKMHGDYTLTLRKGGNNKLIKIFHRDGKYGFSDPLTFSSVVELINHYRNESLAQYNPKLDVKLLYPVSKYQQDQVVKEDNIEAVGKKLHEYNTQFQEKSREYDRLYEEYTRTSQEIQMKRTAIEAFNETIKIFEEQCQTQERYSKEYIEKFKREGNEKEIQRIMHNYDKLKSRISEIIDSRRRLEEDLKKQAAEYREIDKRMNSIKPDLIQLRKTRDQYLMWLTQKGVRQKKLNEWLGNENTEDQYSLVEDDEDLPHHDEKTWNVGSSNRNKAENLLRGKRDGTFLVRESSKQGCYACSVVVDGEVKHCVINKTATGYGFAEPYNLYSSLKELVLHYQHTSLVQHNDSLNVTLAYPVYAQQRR
Sequence of PI3Kγ (p110γ) Recombinant Human Protein (P48736 whole entry): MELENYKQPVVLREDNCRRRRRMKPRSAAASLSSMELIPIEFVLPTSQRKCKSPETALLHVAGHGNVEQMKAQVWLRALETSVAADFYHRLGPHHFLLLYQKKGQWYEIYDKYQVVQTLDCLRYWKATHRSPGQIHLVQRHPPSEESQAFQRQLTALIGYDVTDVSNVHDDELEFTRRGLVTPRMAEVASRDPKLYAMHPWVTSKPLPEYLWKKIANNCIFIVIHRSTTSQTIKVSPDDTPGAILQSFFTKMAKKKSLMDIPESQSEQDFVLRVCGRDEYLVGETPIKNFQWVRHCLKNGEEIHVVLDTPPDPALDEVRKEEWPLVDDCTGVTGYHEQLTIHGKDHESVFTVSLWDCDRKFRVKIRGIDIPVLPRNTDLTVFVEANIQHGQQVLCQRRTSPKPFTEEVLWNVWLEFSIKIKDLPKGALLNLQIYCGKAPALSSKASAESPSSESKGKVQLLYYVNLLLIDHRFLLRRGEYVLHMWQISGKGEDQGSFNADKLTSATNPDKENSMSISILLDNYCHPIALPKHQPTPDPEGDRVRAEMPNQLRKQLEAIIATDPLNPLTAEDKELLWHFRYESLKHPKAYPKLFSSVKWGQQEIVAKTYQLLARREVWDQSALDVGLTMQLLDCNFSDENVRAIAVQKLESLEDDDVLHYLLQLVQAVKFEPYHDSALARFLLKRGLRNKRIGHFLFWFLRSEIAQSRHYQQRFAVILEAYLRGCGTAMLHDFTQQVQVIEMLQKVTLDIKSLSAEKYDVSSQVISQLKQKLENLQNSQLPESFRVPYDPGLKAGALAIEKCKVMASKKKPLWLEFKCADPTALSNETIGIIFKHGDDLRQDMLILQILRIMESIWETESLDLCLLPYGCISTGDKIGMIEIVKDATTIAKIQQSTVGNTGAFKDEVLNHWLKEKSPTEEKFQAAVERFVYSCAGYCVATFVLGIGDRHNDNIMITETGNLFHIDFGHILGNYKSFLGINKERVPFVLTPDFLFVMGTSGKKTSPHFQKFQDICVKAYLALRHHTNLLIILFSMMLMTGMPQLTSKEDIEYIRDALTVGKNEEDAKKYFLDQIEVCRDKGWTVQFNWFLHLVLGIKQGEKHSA

In general, IC50 refers to the concentration that gives 50% inhibition. In the case of `Cc1ncc(-c2cn3c(-c4cc(C(O)(CO)C(F)(F)F)ccc4C)cnc3c(N)n2)o1` (single isomer, unassigned) [Example 68, 2-(3-(8-Amino-6-(2-methyloxazol-5-yl)imidazo[1,2-o]pyrazin-3-yl)-4-methylphenyl)-3,3,3-trifluoropropane-1,2-diol], the IC50 in experiment [1] (setting [4]) and in experiment [2] (setting [5]) was below 0.1 µM each time.
As to `Cc1ccc(C(O)(C(N)=O)C(F)(F)F)cc1-c1cnc2c(N)nc(C(C)(C)O)cn12` (single isomer, unassigned) [Example 255, 2-(3-(8-Amino-6-(2-hydroxypropan-2-yl)imidazo[1,2-a]pyrazin-3-yl)-4-methylphenyl)-3,3,3-trifluoro-2-hydroxypropanamide trifluoroacetate salt (single enantiomer)], the IC50 in experiment [1] (setting [4]) and in experiment [2] (setting [5]) was below 0.1 µM in each case.
As to `Cc1ccc(C(O)(C(N)=O)C(F)(F)F)cc1-c1cnc2c(N)nc(C(=O)NC34CCC(O)(CC3)C4)cn12` (single isomer, unassigned) [Example 260, 8-Amino-3-(5-(3-amino-1,1,1-trifluoro-2-hydroxy-3-oxopropan-2-yl)-2-methylphenyl)-N-(4-hydroxybicyclo[2.2.1]heptan-1-yl)imidazo[1,2-a]pyrazine-6-carboxamide trifluoroacetate salt (single enantiomer)], the IC50 in experiment [1] (setting [4]) is below 0.1 µM; in experiment [2] (setting [5]), 0.1 to 0.5 µM.
For the compound `Cc1ccc(C(C)(O)C(F)F)cc1-c1cnc2c(N)nc(-c3c[nH]nc3C)cn12` (stereo not drawn) [Example 47, 2-(3-(8-Amino-6-(3-methyl-1H-pyrazol-4-yl)imidazo[1,2-a]pyrazin-3-yl)-4-methylphenyl)-1,1-difluoropropan-2-ol, 1.2TFA], the IC50 in experiment [3], in experiment [1] (setting [4]) and in experiment [2] (setting [5]) was below 0.1 µM each time.
For `Cc1ccc(C(O)(CO)C(F)(F)F)cc1-c1cnc2c(N)nc(-c3cnn(C)c3)cn12` (stereo not drawn) [Example 69, 2-(3-(8-Amino-6-(1-methyl-1H-pyrazol-4-yl)imidazo[1,2-a]pyrazin-3-yl)-4-methylphenyl)-3,3,3-trifluoropropane-1,2-diol trifluoroacetate salt], the half-maximal inhibitory concentration (IC50) in experiment [1] and in experiment [2] was below 0.1 µM throughout.
`Cc1ncc(-c2cn3c(-c4cc(C(O)(CO)C(F)(F)F)ccc4C)cnc3c(N)n2)s1` (stereo not drawn) [Example 70, 2-(3-(8-Amino-6-(2-methylthiazol-5-yl)imidazo[1,2-a]pyrazin-3-yl)-4-methylphenyl)-3,3,3-trifluoropropane-1,2-diol trifluoroacetate salt]: the IC50 in experiment [1] and in experiment [2] was below 0.1 µM each time.
For the compound `Cc1ccc(C(O)(CO)C(F)(F)F)cc1-c1cnc2c(N)nc(-c3cnco3)cn12` (stereo not drawn) [Example 71, 2-(3-(8-Amino-6-(oxazol-5-yl)imidazo[1,2-a]pyrazin-3-yl)-4-methylphenyl)-3,3,3-trifluoropropane-1,2-diol trifluoroacetate salt], the IC50 in experiment [1] and in experiment [2] was below 0.1 µM in each case.
